HELM strings list units from the 5' end as sugar, base in round brackets, then linkage (d deoxyribose, r ribose, m 2'-O-methyl, p phosphodiester). Strings are as the collection lists them; they lack the last nucleoside at the 3' end of the tested compound. [moe] = 2'-O-(2-methoxyethyl) (MOE); [sp] = phosphorothioate linkage; [m5C] = 5-methylcytosine

The series has as its target UBE3A-ATS. Nature of the series: mouse, dose not given. Particulars: ASO.
As for “RNA1{[moe](T)[sp].[moe](T)p.[moe](A)p.[moe](T)p.[moe](A)p.d(G)[sp].d(G)[sp].d(G)[sp].d(T)[sp].d(G)[sp].d(G)[sp].d(T)[sp].d(T)[sp].d(G)[sp].d(G)[sp].[moe](T)p.[moe](T)p.[moe]([m5C])[sp].[moe](A)}$$$$ (last 3' nucleoside missing)”, the 3 h FOB score is 7 score 0-7.

As for “RNA1{[moe]([m5C])[sp].[moe](G)p.[moe](T)p.[moe]([m5C])p.[moe](T)p.d(T)[sp].d([m5C])[sp].d([m5C])[sp].d([m5C])[sp].d(G)[sp].d([m5C])[sp].d(A)[sp].d([m5C])[sp].d([m5C])[sp].d(A)[sp].[moe](T)p.[moe](G)p.[moe]([m5C])[sp].[moe](A)}$$$$ (last 3' nucleoside missing)”, the 3 h FOB score is 2 score 0-7.

As for “RNA1{[moe]([m5C])[sp].[moe](T)p.[moe](G)p.[moe](T)p.[moe](A)p.d(T)[sp].d(A)[sp].d(G)[sp].d(T)[sp].d(T)[sp].d(T)[sp].d(A)[sp].d([m5C])[sp].d([m5C])[sp].d([m5C])[sp].[moe](A)p.[moe](G)p.[moe](G)[sp].[moe]([m5C])}$$$$ (last 3' nucleoside missing)”, the 3 h FOB score came to 0 score 0-7.

For “RNA1{[moe](A)[sp].[moe](T)[sp].[moe]([m5C])[sp].[moe](A)[sp].[moe](T)[sp].d(G)[sp].d(T)[sp].d(G)[sp].d([m5C])[sp].d(A)[sp].d(T)[sp].d(A)[sp].d([m5C])[sp].d([m5C])[sp].d([m5C])[sp].[moe](A)[sp].[moe](G)[sp].[moe](G)[sp].[moe](G)}$$$$ (last 3' nucleoside missing)”, the 3 h FOB score came out at 5.2 score 0-7.

Substance “RNA1{[moe](G)[sp].[moe]([m5C])p.[moe](T)p.[moe]([m5C])p.d(A)[sp].d(G)[sp].d(T)[sp].d(T)[sp].d(A)[sp].d(G)[sp].d(G)[sp].d(T)[sp].d(T)[sp].d(A)[sp].[moe](G)p.[moe](T)p.[moe](G)p.[moe]([m5C])[sp].[moe](A)}$$$$ (last 3' nucleoside missing)” returned a 3 h FOB score of 4 score 0-7.

In the case of “RNA1{[moe]([m5C])[sp].[moe](G)p.[moe]([m5C])p.[moe](A)p.[moe](A)[sp].d(T)[sp].d(G)[sp].d(T)[sp].d(A)[sp].d(T)[sp].d([m5C])[sp].d(A)[sp].d(G)[sp].[moe](G)p.[moe]([m5C])p.[moe](A)[sp].[moe](A)}$$$$ (last 3' nucleoside missing)”, the 3 h FOB score was determined as 2 score 0-7.

On to “RNA1{[moe](T)[sp].[moe](T)p.[moe](G)p.[moe](T)p.[moe](A)p.d(G)[sp].d([m5C])[sp].d(T)[sp].d(A)[sp].d(T)[sp].d(A)[sp].d(G)[sp].d(G)[sp].d(T)[sp].d(G)[sp].[moe](T)p.[moe]([m5C])p.[moe](A)[sp].[moe]([m5C])}$$$$ (last 3' nucleoside missing)”, for which the 3 h FOB score worked out at 4 score 0-7.

Turning to “RNA1{[moe](T)[sp].[moe](G)p.[moe]([m5C])p.[moe](A)p.[moe](T)p.d(A)[sp].d(A)[sp].d(A)[sp].d(G)[sp].d([m5C])[sp].d([m5C])[sp].d(A)[sp].d(G)[sp].d(G)[sp].d([m5C])[sp].[moe]([m5C])p.[moe](A)p.[moe](G)[sp].[moe](G)}$$$$ (last 3' nucleoside missing)”, the 3 h FOB score came out at 2.2 score 0-7.

With “RNA1{[moe](G)[sp].[moe]([m5C])p.[moe]([m5C])p.[moe](A)p.d(G)[sp].d(G)[sp].d(T)[sp].d(G)[sp].d(T)[sp].d([m5C])[sp].d(T)[sp].d(T)[sp].d(A)[sp].d(T)[sp].[moe](A)p.[moe](T)p.[moe]([m5C])p.[moe](T)[sp].[moe](A)}$$$$ (last 3' nucleoside missing)”, the 3 h FOB score was found to be 1 score 0-7.

“RNA1{[moe](T)[sp].[moe](A)p.[moe](T)p.[moe](T)p.[moe](G)p.[moe](G)p.d(T)[sp].d([m5C])[sp].d(A)[sp].d(T)[sp].d([m5C])[sp].d(T)[sp].d([m5C])[sp].d(G)[sp].d(G)[sp].d(G)[sp].[moe](T)p.[moe](A)[sp].[moe](T)}$$$$ (last 3' nucleoside missing)” registered a 3 h FOB score of 4 score 0-7.

Substance “RNA1{[moe](G)[sp].[moe]([m5C])p.[moe](A)p.[moe](T)[sp].d(A)[sp].d([m5C])[sp].d([m5C])[sp].d([m5C])[sp].d(A)[sp].d(G)[sp].d(G)[sp].d(G)[sp].[moe](T)p.[moe](A)p.[moe](G)p.[moe](G)[sp].[moe](A)}$$$$ (last 3' nucleoside missing)” came in with a 3 h FOB score of 0 score 0-7.

With “RNA1{[moe](T)[sp].[moe](G)p.[moe](T)p.[moe](A)p.[moe](T)p.d([m5C])[sp].d(A)[sp].d(G)[sp].d(G)[sp].d([m5C])[sp].d(A)[sp].d(A)[sp].d([m5C])[sp].d(A)[sp].d(G)[sp].[moe](A)p.[moe](A)p.[moe](T)[sp].[moe]([m5C])}$$$$ (last 3' nucleoside missing)”, the 3 h FOB score was 4.7 score 0-7.

As to “RNA1{[moe](T)[sp].[moe](T)p.[moe](T)p.[moe](G)p.[moe]([m5C])p.d(T)[sp].d(T)[sp].d(T)[sp].d(T)[sp].d([m5C])[sp].d(A)[sp].d(G)[sp].d(T)[sp].d([m5C])[sp].d(A)[sp].[moe](G)p.[moe](G)p.[moe](T)[sp].[moe](A)}$$$$ (last 3' nucleoside missing)”, the 3 h FOB score was 1 score 0-7.

In turn, “RNA1{[moe](T)[sp].[moe](T)p.[moe](A)p.[moe](G)p.[moe](G)p.d([m5C])[sp].d(A)[sp].d(A)[sp].d(T)[sp].d(G)[sp].d(G)[sp].d(A)[sp].d([m5C])[sp].d(T)[sp].d(T)[sp].[moe](A)p.[moe](G)p.[moe](T)[sp].[moe](A)}$$$$ (last 3' nucleoside missing)” yielded a 3 h FOB score of 1 score 0-7.

In turn, “RNA1{[moe](T)[sp].[moe](G)p.[moe](G)p.[moe](T)p.[moe]([m5C])p.[moe](A)[sp].d(T)[sp].d([m5C])[sp].d(T)[sp].d([m5C])[sp].d(G)[sp].d(G)[sp].d(G)[sp].d(T)[sp].[moe](A)p.[moe](T)[sp].[moe](A)}$$$$ (last 3' nucleoside missing)” registered a 3 h FOB score of 4.7 score 0-7.

“RNA1{[moe](G)[sp].[moe](G)p.[moe](T)p.[moe](A)p.[moe](G)p.d(T)[sp].d([m5C])[sp].d(T)[sp].d(A)[sp].d(T)[sp].d(A)[sp].d(T)[sp].d(T)[sp].d(T)[sp].d(G)[sp].[moe](G)p.[moe](T)p.[moe](A)[sp].[moe](A)}$$$$ (last 3' nucleoside missing)” registered a 3 h FOB score of 6.2 score 0-7.

The substance “RNA1{[moe](T)[sp].[moe](T)p.[moe](A)p.[moe](G)p.[moe](G)p.d(T)[sp].d(T)[sp].d(A)[sp].d(G)[sp].d(T)[sp].d(G)[sp].d([m5C])[sp].d(A)[sp].d([m5C])[sp].d(A)[sp].[moe](G)p.[moe](A)p.[moe](T)[sp].[moe](A)}$$$$ (last 3' nucleoside missing)” had a 3 h FOB score of 6 score 0-7.

The substance “RNA1{[moe](G)[sp].[moe](T)p.[moe](G)p.[moe](G)p.[moe](T)p.d([m5C])[sp].d(A)[sp].d(G)[sp].d(A)[sp].d(T)[sp].d(T)[sp].d([m5C])[sp].d([m5C])[sp].d(T)[sp].d(A)[sp].[moe](A)p.[moe](A)p.[moe](T)[sp].[moe](A)}$$$$ (last 3' nucleoside missing)” gave a 3 h FOB score of 0 score 0-7.

Substance “RNA1{[moe](G)[sp].[moe](T)p.[moe](A)p.[moe]([m5C])p.[moe](A)p.d([m5C])[sp].d(T)[sp].d(A)[sp].d(T)[sp].d(T)[sp].d(G)[sp].d(T)[sp].d(T)[sp].d(T)[sp].d(T)[sp].[moe](G)p.[moe](A)p.[moe](T)[sp].[moe](A)}$$$$ (last 3' nucleoside missing)” displayed a 3 h FOB score of 2.5 score 0-7.

“RNA1{[moe](T)[sp].[moe](G)p.[moe](G)p.[moe](T)p.[moe]([m5C])p.d(A)[sp].d(T)[sp].d([m5C])[sp].d(T)[sp].d([m5C])[sp].d(G)[sp].d(G)[sp].d(G)[sp].d(T)[sp].d(A)[sp].[moe](T)p.[moe](A)p.[moe](T)[sp].[moe](A)}$$$$ (last 3' nucleoside missing)”: the 3 h FOB score is 5.2 score 0-7.

With “RNA1{[moe](T)[sp].[moe](G)p.[moe](A)p.[moe](T)p.[moe]([m5C])p.[moe](A)[sp].d([m5C])[sp].d(A)[sp].d(T)[sp].d(T)[sp].d(A)[sp].d([m5C])[sp].d([m5C])[sp].d([m5C])[sp].[moe](A)p.[moe](T)[sp].[moe]([m5C])}$$$$ (last 3' nucleoside missing)”, the 3 h FOB score came to 0 score 0-7.

“RNA1{[moe]([m5C])[sp].[moe](A)p.[moe](T)p.[moe](A)p.[moe]([m5C])p.[moe]([m5C])[sp].d([m5C])[sp].d(A)[sp].d(G)[sp].d(G)[sp].d(G)[sp].d(T)[sp].d(A)[sp].d(G)[sp].[moe](G)p.[moe](A)[sp].[moe](T)}$$$$ (last 3' nucleoside missing)” registered a 3 h FOB score of 2 score 0-7.

As for “RNA1{[moe]([m5C])[sp].[moe](T)p.[moe](G)p.[moe](A)p.[moe](G)p.d(T)[sp].d([m5C])[sp].d(A)[sp].d(G)[sp].d(T)[sp].d([m5C])[sp].d([m5C])[sp].d(A)[sp].d(A)[sp].d(A)[sp].[moe](T)p.[moe](G)p.[moe](A)[sp].[moe](A)}$$$$ (last 3' nucleoside missing)”, the 3 h FOB score turned out to be 0.5 score 0-7.

Regarding “RNA1{[moe]([m5C])[sp].[moe](T)p.[moe](G)p.[moe](A)p.d(T)[sp].d([m5C])[sp].d(A)[sp].d([m5C])[sp].d(A)[sp].d(T)[sp].d(T)[sp].d(A)[sp].d([m5C])[sp].d([m5C])[sp].[moe]([m5C])p.[moe](A)p.[moe](T)p.[moe]([m5C])[sp].[moe]([m5C])}$$$$ (last 3' nucleoside missing)”, the 3 h FOB score is 0 score 0-7.

In the case of “RNA1{[moe](A)[sp].[moe](A)p.[moe](A)p.[moe](A)p.[moe]([m5C])p.d(G)[sp].d([m5C])[sp].d(A)[sp].d(A)[sp].d(T)[sp].d(G)[sp].d(T)[sp].d(A)[sp].d(T)[sp].d([m5C])[sp].[moe](A)p.[moe](G)p.[moe](G)[sp].[moe]([m5C])}$$$$ (last 3' nucleoside missing)”, the 3 h FOB score stood at 0.7 score 0-7.

In the case of “RNA1{[moe](G)[sp].[moe]([m5C])[sp].[moe]([m5C])[sp].[moe]([m5C])[sp].[moe](A)[sp].d(T)[sp].d(G)[sp].d(G)[sp].d(A)[sp].d(T)[sp].d(G)[sp].d(G)[sp].d(T)[sp].d(T)[sp].d(G)[sp].[moe](T)[sp].[moe]([m5C])[sp].[moe](A)[sp].[moe](A)}$$$$ (last 3' nucleoside missing)”, the 3 h FOB score is 7 score 0-7.
